“And” between values parts separate entries of the source, which are not always exact repeats. Equal entries are not always repeated.
Columns and labels:
SARS-CoV-2 = conditions: Vero E6 cells; Wang et al. 2020; read-out: EC50 against SARS-CoV-2; cited from earlier work
healthy volunteers [1] = assay: Phase 1 trial of inhaled niclosamide, safety and PK; conditions: after repeated inhalation doses; raw data
[2] = as above; conditions: human, blood, inhaled, 6 mL of 1% formulation
healthy volunteers [3] = conditions: human, in vivo
[4] = in vivo
[5] = cited from earlier work
asthmatic mice = conditions: dissolved in corn oil, I.P. injection; cited from earlier work
[6] = system: ATCC 29213 (A), MRSA 434844 (B) and S. aureus Newman (C); assay: Spot test on LB agar, all three strains; assay type: cell-based; conditions: for effect on bacterial load, API in DMSO: repeat spot test, only highest concentration (niclosamide 100 µg/mL, oxyclozanide 40 µg/mL)
Experimental: Following incubation, the formed colonies were counted. […] Duplicates were performed.
As both positive controls were negative further the experiment was repeated using different concentrations in a spot test using the same methodology described above.
In this experiment the negative control was the bacterial suspension only.

TMEM16F = target: T1, TMEM16F (Homo sapiens, UniProt Q4KMQ2); conditions: Cabrita et al. 2019; cited from earlier work
T1 sequence (Q4KMQ2 1-910): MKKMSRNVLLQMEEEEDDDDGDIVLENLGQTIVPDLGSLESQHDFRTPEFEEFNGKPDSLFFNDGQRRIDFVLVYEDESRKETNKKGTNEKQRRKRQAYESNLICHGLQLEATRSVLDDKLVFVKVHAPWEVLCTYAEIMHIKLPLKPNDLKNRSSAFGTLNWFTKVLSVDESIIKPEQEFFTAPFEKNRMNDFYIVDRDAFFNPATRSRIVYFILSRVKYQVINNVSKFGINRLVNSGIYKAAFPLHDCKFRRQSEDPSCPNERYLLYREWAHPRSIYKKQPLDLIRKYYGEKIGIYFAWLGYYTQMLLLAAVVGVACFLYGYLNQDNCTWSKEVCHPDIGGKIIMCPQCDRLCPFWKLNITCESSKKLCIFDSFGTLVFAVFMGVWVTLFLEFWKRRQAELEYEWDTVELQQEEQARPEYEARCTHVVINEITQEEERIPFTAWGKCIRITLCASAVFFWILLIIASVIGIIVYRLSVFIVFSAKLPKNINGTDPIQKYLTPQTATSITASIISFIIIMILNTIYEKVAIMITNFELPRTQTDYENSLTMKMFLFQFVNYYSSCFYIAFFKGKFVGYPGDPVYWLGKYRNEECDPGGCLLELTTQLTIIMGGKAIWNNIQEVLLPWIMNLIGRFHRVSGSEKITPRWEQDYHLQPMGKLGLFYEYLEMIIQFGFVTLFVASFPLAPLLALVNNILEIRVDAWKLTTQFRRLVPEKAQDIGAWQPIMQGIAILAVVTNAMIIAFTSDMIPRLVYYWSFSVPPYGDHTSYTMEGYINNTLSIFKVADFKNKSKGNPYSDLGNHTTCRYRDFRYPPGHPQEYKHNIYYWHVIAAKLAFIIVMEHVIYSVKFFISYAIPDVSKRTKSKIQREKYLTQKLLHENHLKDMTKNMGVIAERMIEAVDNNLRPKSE

SARS-CoV = conditions: cited from earlier work
TMEM16A = target: T2, TMEM16A (Homo sapiens, UniProt Q5XXA6); conditions: Cabrita et al. 2019; cited from earlier work
T2 sequence (Q5XXA6 1-986): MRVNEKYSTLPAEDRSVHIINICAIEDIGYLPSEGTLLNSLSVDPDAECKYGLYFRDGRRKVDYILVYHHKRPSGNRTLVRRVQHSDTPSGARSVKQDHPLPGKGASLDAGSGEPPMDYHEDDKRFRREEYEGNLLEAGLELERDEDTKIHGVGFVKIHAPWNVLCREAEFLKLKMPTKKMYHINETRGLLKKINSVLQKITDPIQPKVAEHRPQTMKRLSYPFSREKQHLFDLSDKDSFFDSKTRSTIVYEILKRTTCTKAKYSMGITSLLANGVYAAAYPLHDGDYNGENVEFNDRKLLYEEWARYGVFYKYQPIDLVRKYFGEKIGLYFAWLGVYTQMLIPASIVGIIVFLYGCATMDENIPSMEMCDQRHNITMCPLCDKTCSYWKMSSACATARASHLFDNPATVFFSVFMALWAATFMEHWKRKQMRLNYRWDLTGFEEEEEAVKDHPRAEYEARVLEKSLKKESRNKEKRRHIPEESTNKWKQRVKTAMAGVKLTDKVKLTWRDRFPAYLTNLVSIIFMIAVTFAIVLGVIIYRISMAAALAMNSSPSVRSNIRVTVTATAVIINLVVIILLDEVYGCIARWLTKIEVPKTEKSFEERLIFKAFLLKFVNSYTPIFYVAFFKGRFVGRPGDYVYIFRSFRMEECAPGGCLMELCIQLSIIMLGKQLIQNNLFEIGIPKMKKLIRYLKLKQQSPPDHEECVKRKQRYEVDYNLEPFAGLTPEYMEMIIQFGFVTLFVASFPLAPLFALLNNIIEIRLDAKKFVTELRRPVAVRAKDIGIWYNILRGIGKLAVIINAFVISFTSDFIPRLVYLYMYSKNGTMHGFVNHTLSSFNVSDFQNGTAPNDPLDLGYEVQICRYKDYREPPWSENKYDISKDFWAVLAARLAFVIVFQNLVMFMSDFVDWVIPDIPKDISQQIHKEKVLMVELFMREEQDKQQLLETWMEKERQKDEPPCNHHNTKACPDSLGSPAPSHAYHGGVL

Q: For `CCN(CC)CCCC(C)Nc1ccnc2cc(Cl)ccc12` (stereo not shown) [chloroquine], which EC50 (SARS-CoV-2) is on record?
A: 1130 nM

Q: Which “peak concentration in blood (range)” value (healthy volunteers [1]) does the source give for `O=C(Nc1ccc([N+](=O)[O-])cc1Cl)c1cc(Cl)ccc1O` [niclosamide ethanolamine] here?
A: 29 to 506 ng/mL

Q: And the half-life ([2]; repeated)?
A: 2.7 h

Q: What about the half-life ([2]; single dose) of the same compound?
A: 2 h

Q: And the CC50 (Caco-2 cells)?
A: > 10000 nM

Q: And the “AUC0-8, mean” value (healthy volunteers [3])?
A: 509.0 ng·h/mL

Q: What about the “maximum plasma concentration (Cmax), mean” value (healthy volunteers [3]) of the same compound?
A: 238.9 ng/mL

Q: What about the CC50 (VeroE6 cells) of the same compound?
A: > 10000 nM

Q: Which “efficacy margin, mean systemic exposure of human oral dose to IC90 against SARS-CoV-2” value [4] does the source give for `O=C(Nc1ccc([N+](=O)[O-])cc1Cl)c1cc(Cl)ccc1O` [niclosamide] here?
A: 8 fold

Q: What about the “administered dose detected in the urine (minimum level of absorption)” value ([5]; after oral administration) of the same compound?
A: 2-25%

Q: And the “maximal serum concentration of niclosamide” value ([5]; human volunteers, single oral dose of 2,000 mg)?
A: 0.25-6.0 µg/mL and 0.76 -18.3 µM

Q: And the “oral bioavailability (F)” value ([5]; oral)?
A: 10%

Q: And the “effect on mucus and bronchoconstriction in asthmatic mice” value (asthmatic mice)?
A: reduced mucus production and secretion, as well as bronchoconstriction

Q: What about the “effect on bacterial load, API in DMSO” value [6] of the same compound?
A: substantially decreased the bacterial load

Q: And the “inhibition of Cl- channel TMEM16F” value (TMEM16F)?
A: potent inhibitor

Q: And the “concentration suppressing cytopathic effect (CPE) of SARS-CoV (as low as)” value (SARS-CoV)?
A: 1 µm

Q: What about the “concentration that totally abolished viral antigen synthesis” value (SARS-CoV) of the same compound?
A: 1.56 µm

Q: And the EC50 (SARS-CoV; read-out: EC50 of SARS-CoV replication)?
A: < 100 nM

Q: And the “inhibition of Cl- channel TMEM16A” value (TMEM16A)?
A: potent inhibitor

Q: Which EC50 (SARS-CoV-2) does the source give for `CC(=O)Oc1ccccc1C(=O)Nc1ncc([N+](=O)[O-])s1` [nitazoxanide] here?
A: 2120 nM

Q: Which “efficiency in reducing bacterial load of S. aureus” value ([6]; comparison of tested formulations) does the source give for `O=C(Nc1cc(Cl)cc(Cl)c1O)c1c(O)c(Cl)cc(Cl)c1Cl` [oxyclozanide, Oxyclozanide] here?
A: highest efficiency

Q: What about the “effect on bacterial load, API in DMSO” value [6] of the same compound?
A: substantially decreased the bacterial load

— US20230190685A1, “FORMULATION” (UNION Therapeutics A/S, priority 2020, published 2023)
